For assay [1], the target named is T1, ZmPEPC-C4 (Zea mays, UniProt Q84KR7).
T1 sequence (Q84KR7 1-970): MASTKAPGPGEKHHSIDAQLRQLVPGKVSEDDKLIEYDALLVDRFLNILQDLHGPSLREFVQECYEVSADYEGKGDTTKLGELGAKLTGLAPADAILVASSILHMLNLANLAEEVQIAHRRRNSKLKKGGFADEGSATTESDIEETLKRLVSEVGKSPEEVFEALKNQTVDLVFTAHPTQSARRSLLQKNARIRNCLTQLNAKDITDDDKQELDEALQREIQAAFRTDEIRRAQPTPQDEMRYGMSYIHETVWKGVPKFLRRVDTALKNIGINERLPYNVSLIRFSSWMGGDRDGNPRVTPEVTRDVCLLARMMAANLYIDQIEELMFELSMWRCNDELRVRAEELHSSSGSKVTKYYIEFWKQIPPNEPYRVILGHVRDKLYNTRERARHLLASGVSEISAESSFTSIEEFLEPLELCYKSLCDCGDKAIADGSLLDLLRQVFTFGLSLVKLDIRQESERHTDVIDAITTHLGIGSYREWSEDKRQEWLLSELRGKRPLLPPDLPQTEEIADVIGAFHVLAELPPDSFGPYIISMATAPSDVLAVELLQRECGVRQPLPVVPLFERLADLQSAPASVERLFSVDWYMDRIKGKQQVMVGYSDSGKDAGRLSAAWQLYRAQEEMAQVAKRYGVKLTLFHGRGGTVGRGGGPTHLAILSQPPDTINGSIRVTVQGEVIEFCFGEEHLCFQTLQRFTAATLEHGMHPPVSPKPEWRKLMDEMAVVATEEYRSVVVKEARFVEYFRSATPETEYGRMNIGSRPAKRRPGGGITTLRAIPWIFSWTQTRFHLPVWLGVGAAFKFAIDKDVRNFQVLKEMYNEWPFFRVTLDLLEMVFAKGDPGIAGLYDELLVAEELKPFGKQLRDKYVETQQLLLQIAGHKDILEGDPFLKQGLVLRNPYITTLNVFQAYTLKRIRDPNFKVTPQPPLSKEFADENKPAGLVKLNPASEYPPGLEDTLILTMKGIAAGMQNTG
Nature of the assay: near-UV CD and limited trypsin proteolysis. Format: binding. Particulars: 15 mM G6P, pH 7.3; allosteric activator; no effect on ANS fluorescence.

Assay [2] addresses T1, ZmPEPC-C4. The experiment in a line: coupled malic dehydrogenase assay, NADH oxidation at […] nm. The note with it: read-out: % inhibition at 10 mM. In kind it is biochemical.
For assay [3], the target named is T1, ZmPEPC-C4. The experiment in a line: quenching of ANS-enzyme fluorescence at […] nm, Hill-type fit. In kind it is binding.
In assay [4] the target is T1, ZmPEPC-C4. The experiment in a line: ANS fluorescence titration, emission […] nm. Format: binding.

For `O=P(O)(O)OC[C@H]1OC(O)[C@H](O)[C@@H](O)[C@@H]1O` (stereo partly shown) [G6P], the “near-UV CD and limited trypsin proteolysis” value on ZmPEPC-C4 [1] was “differences were also observed in the CD spectra of the E-PEP, E-G6P, and E-Gly complexes”.
Usually inhibition stands for how much of the control response was suppressed. Broadly, the Kd is the free concentration of one partner at which half of the binding sites on the other are occupied at equilibrium, for simple one-to-one binding. Low readings indicate tighter binding, high ones weaker binding. With `O=C(O)C[C@H](O)C(=O)O` [malate], the inhibition at 10000 µM on ZmPEPC-C4 [2] is 84.5 ± 0.2%. Moreover, the Kd on ZmPEPC-C4 [3] is 360 ± 70 µM.
Consider `O=S(=O)(O)c1cccc2cccc(Nc3ccccc3)c12` [ANS], for which the Kd on ZmPEPC-C4 [4] was 14.5 ± 1.5 µM.

For the origin of these results see paper PMC8637149 (Heliyon, 2021).
